Assay results published in patent publication US9988644B2, “Compounds for improved viral transduction” (bluebird bio, Inc., priority 2011, dated 2018).

Tests used:
CD34+ cells [1] = test: FACS staining for ALD after transduction with ALD (ABCD1)-expressing lentivirus in presence of dmPGE2; format: cell-based, human; settings: ABCD1 MOI 25
Description: One vial of CD34+ cells (AllCells) were thawed by incubating at 37° C. for 1-2 minutes and contents were transferred to 10 mL Stem Cell Growth Media (hereafter referred to as SCGM) in a 15-mL conical tube. Cells were spun for 5 minutes at 1500 RPM in a standard tabletop centrifuge, resuspended in 10 mL SCGM and counted on a hemacytometer. A volume correlating with an appropriate number of cells was transferred to a fresh 15-mL conical tube, and again spun for 5 minutes at 1500 RPM. Cells were resuspended to the desired cell concentration in SCGM+1× cytokines (100 ng/mL SCF, 100 ng/mL TPO, 100 ng/mL FltL, and 30 ng/mL IL-3), and plated on a sterile non-adherent surface at 37° C. in a standard humidified tissue culture incubator (5% CO2).
(§1) Pre-stimulated cells (Example 1) were counted after 18-24 hours of culture. The cells were collected and spun for 5 minutes at 1500 RPM. 1.2×10^6 pre-stimulated CD34^+ cells were resuspended in 60 uL 10× cytokines (1000 ng/mL SCF, 1000 ng/mL TPO, 1000 ng/mL FltL, and 300 ng/mL IL-3), 7.8 uL protamine sulfate, 111 uL viral supernatant, and 361.2 uL SCGM. 90 uL cell/virus suspension (about 200,000 cells) was added to each well of a standard non-adherent 96-well plate. dmPGE2 was added during this viral transduction step at a final concentration of 100 uM, 50 uM, 25 uM, 12.5 uM, 1 uM, or 0 uM.
Aliquots of 10 mM dmPGE2 in DMSO were prepared from 1 mg previously processed dmPGE2 (Cayman Chemicals). Briefly, air was pipetted into the vial of dmPGE2 until methyl acetate was evaporated. 263 uL DMSO was added to the PGE2 remaining in the vial, and aliquots of 25 uL were added to 1.5 mL Eppendorf tubes and stored at −80° C. 10× working stock solutions were prepared by serial dilution of dmPGE2 in SCGM, and were then added to cells at appropriate working concentrations, according to Table 2. Cells were then incubated at 37° C. in a standard humidified tissue culture incubator (5% CO2).
After 24 hours of culture with virus and dmPGE2, cells were washed prior to subsequent functional validation assays. Washing was performed by transferring cells to a 96-well U-bottom plate and spinning for 5 minutes at 1500 RPM in a standard tabletop centrifuge. Media was aspirated and cells were resuspended in 200 uL SCGM. Cells were spun again for 5 minutes at 1500 RPM and media was aspirated. Cells were again resuspended in 200 uL SCGM then spun for 5 minutes at 1500 RPM, and again the media was aspirated. Particular functional validation assays are described below.
(§2) Washed cells were resuspended in 200 uL SCGM+1× cytokines (as described in Example 1) and transferred to a standard 12-well non-adherent tissue culture plate containing an additional 800 uL SCGM+1× cytokines Cells were maintained for an additional 6 days in a standard humidified tissue culture incubator (5% CO2) and then subjected Vector Copy Number analysis (Example 5) and FACS analysis. For FACS analysis, cells were assayed for the presence of a virally-encoded transgene, green fluorescent protein (GFP). The frequency of the virally-labeled cells within the pool of cultured cells was quantified as the frequency of GFP+ cells within the population. The mean fluorescence intensity of labeled cells was quantified.
Tables 3A-C indicate the dose-response of dmPGE2 in promoting viral transduction of CD34+ cells for three separate experiments. […] Cells were then washed and analyzed by flow cytometry and PCR after approximately 1 week in culture. […]

CD34+ cells [2] = test: Vector Copy Number analysis (qRT-PCR, viral LTR vs human beta-actin) after GFP+ lentivirus transduction; format: cell-based
Description: as §1, §2
Briefly, total genomic DNA was isolated from cells through standard protocols (for example, through DNEasy columns from Qiagen). Genomic DNA was subjected to quantitative real-time polymerase chain reaction (qRT-PCR) with TaqMan probes for viral LTR and human beta-actin. The Ct values for viral signal and beta-actin signal were normalized to a standardized control, and the number of viral copies per copy of beta actin were calculated. A linear relationship between the vector copy number and the mean fluorescence intensity (Example 4) was observed when a viral construct that encodes GFP was used.
Tables 3A-C indicate the dose-response of dmPGE2 in promoting viral transduction of CD34+ cells for three separate experiments. CD34+ cells were thawed and pre-stimulated with SCF, TPO, FltL, and IL3, then transduced (A) with GFP+ lentivirus at a multiplicity of infection of 25, (B) with GFP+ lentivirus at a multiplicity of infection of 5, or (C) transduced with an ALD (ABCD1)-expressing lentivirus at a multiplicity of infection of 25. Cells were exposed to dmPGE2 during the viral transduction step (24-48 hours of culture). Cells were then washed and analyzed by flow cytometry and PCR after approximately 1 week in culture. The percentage of cells positive for GFP (A, B) or ALD (C) via FACS staining is indicated, along with the mean fluorescent intensity (MFI) and vector copy number (VCN) (A, B).

Q: How did the “% Positive (ALD via FACS staining)” value (CD34+ cells [1]; dmPGE2 1 uM during transduction (24-48 hours of culture)) turn out when `CCCCC(C)(C)[C@H](O)/C=C/[C@H]1[C@H](O)CC(=O)[C@@H]1C/C=C\CCCC(=O)O` [dmPGE2, 16,16-dimethyl PGE2] was run?
A: 34.13%

Q: What about the “% Positive (ALD via FACS staining)” value (CD34+ cells [1]; dmPGE2 12.5 uM during transduction (24-48 hours of culture)) of the same compound?
A: 45.36%

Q: And the “% Positive (ALD via FACS staining)” value (CD34+ cells [1]; dmPGE2 25 uM during transduction (24-48 hours of culture))?
A: 43.76%

Q: What about the “% Positive (ALD via FACS staining)” value (CD34+ cells [1]; dmPGE2 50 uM during transduction (24-48 hours of culture)) of the same compound?
A: 56.10%

Q: And the “% Positive (ALD via FACS staining)” value (CD34+ cells [1]; dmPGE2 100 uM during transduction (24-48 hours of culture))?
A: 72.26%

Q: And the “VCN (vector copy number)” value (CD34+ cells [2]; dmPGE2 12.5 uM during transduction, GFP MOI 5)?
A: 0.18

Q: And the “VCN (vector copy number)” value (CD34+ cells [2]; dmPGE2 12.5 uM during transduction, GFP MOI 25)?
A: 1.5

Q: And the “VCN (vector copy number)” value (CD34+ cells [2]; dmPGE2 25 uM during transduction, GFP MOI 5)?
A: 0.21

Q: And the “VCN (vector copy number)” value (CD34+ cells [2]; dmPGE2 25 uM during transduction, GFP MOI 25)?
A: 1.7

Q: And the “VCN (vector copy number)” value (CD34+ cells [2]; dmPGE2 50 uM during transduction, GFP MOI 5)?
A: 0.715

Q: What about the “VCN (vector copy number)” value (CD34+ cells [2]; dmPGE2 50 uM during transduction, GFP MOI 25) of the same compound?
A: 2.2

Q: What about the “VCN (vector copy number)” value (CD34+ cells [2]; dmPGE2 100 uM during transduction, GFP MOI 5) of the same compound?
A: 0.83

Q: And the “VCN (vector copy number)” value (CD34+ cells [2]; dmPGE2 100 uM during transduction, GFP MOI 25)?
A: 3.55
